Series [1] relates to skin of the upper arm of volunteers. Briefly: Safety test, application on the upper arm of volunteers. Conditions: 3 parts by weight (equol equivalent) in ethanol/glycerol/water base, 1-cm square, three times a day for three days, five volunteers each, observed for the next week.
The subject of series [2] is mouse 3T3-L1 cell line (precursor lipocyte). Briefly: Effect on differentiation of precursor lipocyte into lipocyte (oil red O staining). It is filed as cell-based. The conditions noted are these: for Concentration enhancing differentiation of precursor lipocyte into mature lipocyte: Table 3, compared to control; for Enhancing effect on differentiation into lipocyte: with 10 μg/ml insulin, 12 days, relative absorbance, control = 100%, * p < 0.05 vs control. Here is the method:
It is known that mouse 3T3-L1 cell line (precursor lipocyte) differentiates into mature lipocyte when cultured in the presence of a differentiation inducer, and accumulates oil droplet in the cell according to the progress of differentiation. The mouse 3T3-Li cells were suspended in a medium, which is Dulbecco's MEM medium (hereinafter, abbreviated as “D-MEM”) supplemented with FCS (final concentration of 10 v/v %) and glucose (final concentration of 3 mg/ml), (hereinafter, described as “regular medium”) to give a cell concentration of 2.5×10^4 cells/well, and inoculated to “CELL CULTURE 24-MULTIWELL MICROPLATE” (24-well microplate coated with collagen type 1, commercialized by Becton, Dickinson and Company) by 1 ml/well. After the cells were cultured at 37° C. in an atmosphere of 5 v/v % CO2 for two days, the supernatant was removed and the remaining cells were admixed with a medium containing 10 μg/ml insulin and equol or equol glycosides dissolved in 50% ethanol, to give a concentration in Table 3, by 1 ml/well and then cultured for 12 days while replacing the medium every two or three days. After each well of the plate was washed with “D-PBS” three times, D-PBS containing 10% formalin was added by 0.2 ml/well, and then the cell was placed at 4° C. for one hour for fixation. After the fixing fluid was removed, a staining fluid of oilred O was added by 0.15 ml/well, and allowed to react at ambient temperature for 15 minutes to stain the lipid droplet in 3T3-L1 cell. After the staining fluid was removed, each well was washed with distilled water three times, and then the plate was dried. After the pigment in each well was dissolved in 0.4 ml of isopropanol, the absorbance of the resulting solution was measured at 490. The progress of the cell differentiation was expressed with relative absorbance to the absrobance of the cell cultured with control regarded as 100%.

The subject of series [3] is mouse 3T3-L1 cells differentiated into mature cells. Briefly: Test for lipid hydrolysis (glycerol release from mature lipocytes). It is filed as cell-based. Conditions: for Enhancing effect on lipid hydrolysis: glycerol per cell protein, 6 hours, control 274, * p < 0.05 vs control. Here is the method:
After the culture supernatant of mouse 3T3-L1 cells cultured under the same condition described above was removed, a regular medium containing 5 μg/ml insulin, 0.25 μM dexamethasone and 0.5 mM 3-isobutyl-1-methylxanthin was added by 1 ml/well, and then the cells were cultured for two days to differentiate into mature cells. After the supernatant was removed, the cells were washed with D-PBS three times and cultured with regular medium for 12 days while replacing the medium every two or three days by 1 ml/well. After the supernatant was removed and the cells were washed with D-PBS two times, a solution containing equol or equol glycosides diluted with D-MEM containing 1% bovine serum albumin to give the concentration described in Table 4 was added by 0.25 ml/well, and then the cell was cultured for 6 hours. After the supernatant was collected, the amount of glycerol was measured to determine the amount of the degraded lipid. After the supernatant was removed and the cells were washed with D-PBS three times, D-PBS containing 0.25% Triton X-100 was added to collect the cells, and then the cells were sonicated to give a cell-dissolving solution. The amount of protein of the sonicated cells was measured by Bradford method as in Experiment 3, and the amount of glycerol per cell protein representing degree of lipid degradation was shown in Table 3. The amount of glycerol was measured with “GLYCEROL REGENT A” (glycerol measurement kit commercialized by Zen-Bio, Inc.).

Series [4] relates to Mouse B16 melanoma cells. Briefly: Test of whitening effect in vitro (melanin production). It counts as cell-based. Also on record: key to Determination of whitening effect: −: Not changed; ±: Slightly whitened; +: A little whitened; ++: Significantly whitened; +++: Completely whitened. The conditions noted are these: for Determination of whitening effect: B16 melanoma cells, 4 days; for EC50: Mus musculus, B16, concentration giving half of the melanin production of the negative control, read-out: ED50 (the source's name); for Melanin Production: negative control 73.9. Here is the method:
Three equol glycoside preparation prepared in Experiment 1, i.e. the solution containing reaction products (a solution containing 4′-O-α-D-glucopyranosyl-S-equol and 7-O-α-D-glucopyranosyl-S-equol, hereinafter, described as “equol glycoside containing solution”), 4′-O-α-D-glucopyranosyl-S-equol and 7-O-α-D-glucopyranosyl-S-equol, and the equol used in Experiment 1 were used as test samples, and the following experiment was carried out to determine their whitening effect. Mouse B16 melanoma cells suspended in RPMI-1640 medium containing 10 v/v % fetal calf serum (hereinafter, abbreviated as “FCS”) were inoculated into “6-MULTIWELL MICROPLATE” (6-well microplate commercialized by Becton, Dickinson and Company) to give a cell concentration of 4×10^4 cells/well. After the cells were adhered to the bottom of well, the culture supernatant was removed. The cells were admixed with equol or any one of the three equol glycoside samples, diluted with the same medium to give the concentration described in Table 2, and then cultured at 37° C. in an atmosphere of 5 v/v % CO2 for four days. The cells were collected after admixed with trypsin-EDTA, washed once with Dulbecco's PBS (−) (hereinafter, abbreviated as “D-PBS”), and then dissolved in 1N-sodium hydroxide. A part of the solution was used to determine the amount of protein. The above alkaline solution was boiled for 30 minutes and the amount of melanin was measured. […] Also ED50 (the concentration of the test sample giving half of the melanin production in the cell cultured with negative control) is shown in Table 2. The medium alone was used as negative control, and koji acid, which has been used as a whitening substance for external dermatological composition, was used as positive control at the concentration described in Table 2 (0.5 to 2 mM), to evaluate the whitening effect. The evaluation of whitening effect and measurement of melanin, protein and equol glycosides were carried out as follows.
The melanin production was determined by comparing the absorbance at 450 nm (reference 650 nm) of each alkaline solution to that of melanin standard (Sigma Corporation), measured with “MICROPLATE READER M-Vmax” (commercialized by Wako Pure Chemical Industries Co., Ltd.).
The amount of protein was determined by Bradford method using human serum album bumin as standard.
The concentration of equol glycoside in the powdery product used in the following experiments were determined by the same method as used in Experiment 1, based on the molar absorption coefficient of equol measured at UV 280 nm.

For series [5], the system named is skin of the upper arm of volunteers. The conditions noted are these: human, in vivo.
The subject of series [6] is estrogen-receptor. Conditions: Kenneth D. R. et al., Am. J. Clin. Nutr. 81, 1072-1079 (2005); cited from earlier work.

Like-named read-outs stand apart in the source and are kept apart here.

Turning to `OC[C@H]1O[C@H](Oc2ccc([C@@H]3COc4cc(O)ccc4C3)cc2)[C@H](O)[C@@H](O)[C@@H]1O` [4′-O-α-D-glucopyranosyl-R-equol], the “Condition of the skin after application” value in series [1] is recorded as “no rough dry skin or rubor”.

Turning to `OCC1O[C@H](Oc2ccc([C@H]3COc4cc(O)ccc4C3)cc2)[C@@H](O)C(O)[C@@H]1O` (stereo partly drawn) [4′-O-α-D-glucopyranosyl-S-equol], the “Concentration enhancing differentiation of precursor lipocyte into mature lipocyte” value (from here on “Concentration enhancing differentiation”) in series [2] is 80 µM. Further, the entries for the “Enhancing effect on differentiation into lipocyte” value in series [2] (sample 5 μM), in series [2] (sample 20 μM) and in series [2] (sample 80 μM) were 92%, 107% and 217* %, respectively. The results for the “Enhancing effect on lipid hydrolysis” value in series [3] (sample 5 μM), in series [3] (sample 20 μM) and in series [3] (sample 80 μM) were 272 μg/mg-cell protein, 320* μg/mg-cell protein and 401* μg/mg-cell protein, respectively. Besides, the “Determination of whitening effect” value is on record as “+” in series [4] (sample concentration 5 μM), “+” in series [4] (sample concentration 10 μM) and “++” in series [4] (sample concentration 20 μM). Besides, the EC50 in series [4] worked out at 38.8 µM. Further, the “Melanin Production” value was 57.1 μg/mg-cell protein in series [4] (sample concentration 5 μM), 55.0 μg/mg-cell protein in series [4] (sample concentration 10 μM) and 48.2 μg/mg-cell protein in series [4] (sample concentration 20 μM). Further, the “Condition of the skin after application” value in series [5] was “no rough dry skin or rubor”.

On to `OC[C@H]1O[C@H](Oc2ccc3c(c2)OC[C@@H](c2ccc(O)cc2)C3)[C@H](O)[C@@H](O)[C@@H]1O` [7-O-α-D-glucopyranosyl-R-equol], for which the “Condition of the skin after application” value in series [1] is “no rough dry skin or rubor”.

Consider `OCC1O[C@H](Oc2ccc3c(c2)OC[C@H](c2ccc(O)cc2)C3)[C@@H](O)C(O)[C@@H]1O` (stereo partly drawn) [7-O-α-D-glucopyranosyl-S-equol], for which the “Concentration enhancing differentiation” value in series [2] was found to be 80 µM. For the same compound, the “Enhancing effect on differentiation into lipocyte” value in series [2] (sample 5 μM) is on record as 96%; in series [2] (sample 20 μM), 101%; in series [2] (sample 80 μM), 253* %. For the same compound, the “Enhancing effect on lipid hydrolysis” value in series [3] (sample 5 μM) is recorded as 265 μg/mg-cell protein; in series [3] (sample 20 μM), 312* μg/mg-cell protein; in series [3] (sample 80 μM) it was 374* μg/mg-cell protein. For the same compound, the “Determination of whitening effect” value in series [4] (sample concentration 5 μM) is “+”; in series [4] (sample concentration 10 μM), “+”; in series [4] (sample concentration 20 μM), “++”. In addition, in series [4], the EC50 is 27.3 µM. Moreover, the “Melanin Production” value in series [4] (sample concentration 5 μM) worked out at 54.8 μg/mg-cell protein; in series [4] (sample concentration 10 μM), 48.4 μg/mg-cell protein; in series [4] (sample concentration 20 μM), 43.0 μg/mg-cell protein. Also, in series [5], the “Condition of the skin after application” value is given as “no rough dry skin or rubor”.

Consider `Oc1ccc(C2COc3cc(O)ccc3C2)cc1` (centres unmarked) [Equol, equol], for which the “Concentration enhancing differentiation” value in series [2] was at least 5 µM. Further, the “Enhancing effect on differentiation into lipocyte” value in series [2] (sample 5 μM) is 194* %; in series [2] (sample 20 μM) it was 430* %. In series [3] (Table 3, compared to control), the “Concentration enhancing degradation of triglyceride accumulated in lipocyte” value was at least 5 µM. In addition, the entries for the “Enhancing effect on lipid hydrolysis” value in series [3] (sample 5 μM), in series [3] (sample 20 μM) and in series [3] (sample 80 μM) were 392* μg/mg-cell protein, 679* μg/mg-cell protein and 1119* μg/mg-cell protein, respectively. The “Determination of whitening effect” value is “++” in series [4] (sample concentration 5 μM), “+++” in series [4] (sample concentration 10 μM) and “+++” in series [4] (sample concentration 20 μM). Moreover, in series [4] (equol 5 μM to 20 μM, Table 2), the “Whitening efficiency compared to positive control” value is listed as “approximately the same as that of 1 mM koji acid”. The “Melanin Production” value came to 36.8 μg/mg-cell protein in series [4] (sample concentration 5 μM), 30.7 μg/mg-cell protein in series [4] (sample concentration 10 μM) and 29.8 μg/mg-cell protein in series [4] (sample concentration 20 μM).

For `O=c1cc(CO)occ1O` [Koji cid, koji acid, reference compound], the entries for the “Determination of whitening effect” value in series [4] (sample concentration 1 mM), in series [4] (sample concentration 2 mM) and in series [4] (sample concentration 4 mM) were “+”, “++” and “+++”, respectively. Moreover, the entries for the “Melanin Production” value in series [4] (sample concentration 1 mM), in series [4] (sample concentration 2 mM) and in series [4] (sample concentration 4 mM) were 57.1 μg/mg-cell protein, 47.5 μg/mg-cell protein and 37.7 μg/mg-cell protein, respectively.

Take S-equol: the “Estrogenic activity according to the affinity to the receptor” value in series [6] was “higher than that of R-equol”.

These data come from patent publication US20100280231A1, “WHITENING AGENT COMPRISING EQUOL OR ITS SACCHARIDE DERIVATIVE AS AN EFFECTIVE INGREDIENT” (priority 2007, published 2010).
